Data reported in ChEMBL document CHEMBL1201862, “PubChem BioAssay data set” (2004).
Values joined by “and” are separate entries in the source; they are usually repeats but may differ in a detail not shown here. Identical values can stand only once.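 Tested at 5 concentrations; 48 h exposure; 96-well plates; endpoints linearly interpolated, else capped at highest concentration. The concentration for 50% growth inhibition is given as GI50.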 Active and inactive are the calls of the source. No stated cut-off is given here; in the data, active = GI50 up to about 1.1 µM and inactive = higher. Residues, ends and D or L forms follow the SMILES beside them. *: point of attachment. Boc = CC(C)(C)OC(=O)*; OBn = c1ccc(CO*)cc1

Legend:
Assay in all cases: inhibition of tumour cell growth, NCI panel, 48 h
EKVX = system: EKVX
MDA-MB-435 = system: MDA-MB-435
M14 = system: M14
SK-MEL-2 = system: SK-MEL-2
MDA-MB-231 = system: MDA-MB-231
NCI-H460 = system: NCI-H460
RXF 393 = system: RXF 393
NCI-H226 = system: NCI-H226
NCI-H23 = system: NCI-H23
Hs-578T = system: Hs-578T
SW-620 = system: SW-620
Malme-3M = system: Malme-3M
K562 = system: K562
COLO 205 = system: COLO 205
IGROV-1 = system: IGROV-1
A498 = system: A498
SK-OV-3 = system: SK-OV-3
HT-29 = system: HT-29
UACC-257 = system: UACC-257
SNB-78 = system: SNB-78

SMILES	GI50 (EKVX)	GI50 (MDA-MB-435)	GI50 (M14)	GI50 (SK-MEL-2)	GI50 (MDA-MB-231)	GI50 (NCI-H460)	GI50 (RXF 393)	GI50 (NCI-H226)	GI50 (NCI-H23)	GI50 (Hs-578T)	GI50 (SW-620)	GI50 (Malme-3M)	GI50 (K562)	GI50 (COLO 205)	GI50 (IGROV-1)	GI50 (A498)	GI50 (SK-OV-3)	GI50 (HT-29)	GI50 (UACC-257)	GI50 (SNB-78)
C=C(CCC(C)C1CCC2C3=C(C(=O)CC21C)C1(C)CCC(=O)[C@@H](C)C1CC3=O)C(C)C(=O)O (stereo partly specified)	78.7 µM (inactive)	65.6 µM (inactive)	> 100 µM (inactive)	> 100 µM (inactive)	39.3 µM (inactive)	34 µM (inactive)	18 µM (inactive)	> 100 µM (inactive)	38.9 µM (inactive)	> 100 µM (inactive)	68.2 µM (inactive)	> 100 µM (inactive)	18.6 µM (inactive)	45.1 µM (inactive)	42.6 µM (inactive)	> 100 µM (inactive)	0.51 µM (active)	87.7 µM (inactive)	46.9 µM (inactive)	
O=C(C(=O)N1CC2C=CC1CC2)c1c[nH]c2ccccc12 (stereo unspecified)			> 100 µM (inactive)	> 100 µM (inactive)		> 100 µM (inactive)	> 100 µM (inactive)	> 100 µM (inactive)			> 100 µM (inactive)	> 100 µM (inactive)	> 100 µM (inactive)	> 100 µM (inactive)	> 100 µM (inactive)	> 100 µM (inactive)	> 100 µM (inactive)	> 100 µM (inactive)	> 100 µM (inactive)	> 100 µM (inactive)
Cc1cccc2c1c(=O)c1c(O)cc3c(c1n2C)C=CC(C)(C)O3	33.9 µM (inactive)	> 100 µM (inactive)	> 100 µM (inactive)	> 100 µM (inactive)	> 100 µM (inactive)	> 100 µM (inactive)	> 100 µM (inactive)	96.4 µM (inactive)	> 100 µM (inactive)	> 100 µM (inactive)	> 100 µM (inactive)	> 100 µM (inactive)	18.1 µM (inactive)	33.7 µM (inactive)	62.7 µM (inactive)	> 100 µM (inactive)	> 100 µM (inactive)	9.1 µM (inactive)	> 100 µM (inactive)	
N/N=C1\C(=O)N(c2ccc(Cl)cc2Cl)C(=O)C(=O)C1c1nc2ccccc2o1 (stereo unspecified)	> 100 µM (inactive)		> 100 µM (inactive)	95.7 µM (inactive)		> 100 µM (inactive)		> 100 µM (inactive)	> 100 µM (inactive)		> 100 µM (inactive)	> 100 µM (inactive)	> 100 µM (inactive)	> 100 µM (inactive)	> 100 µM (inactive)	> 100 µM (inactive)	> 100 µM (inactive)	> 100 µM (inactive)	> 100 µM (inactive)	> 100 µM (inactive)
Cc1ccc2nc(NC(=O)C(=O)C(C(=O)c3ccc4ccccc4c3)C3OC(=O)c4ccccc43)sc2c1 (stereo unspecified)	17.5 µM (inactive)		15 µM (inactive)	14.4 µM (inactive)		4.43 µM (inactive)	1.87 µM (inactive)	2.1 µM (inactive)	4.99 µM (inactive)		5.86 µM (inactive)	10.1 µM (inactive)		15.1 µM (inactive)	14.9 µM (inactive)	5.48 µM (inactive)	29.9 µM (inactive)	15.2 µM (inactive)	13.1 µM (inactive)	4.36 µM (inactive)
COc1ccc(-c2cc(=O)c3ccccc3[nH]2)c(OC)c1	> 100 µM (inactive)		> 100 µM (inactive)			> 100 µM (inactive)	> 100 µM (inactive)		> 100 µM (inactive)		> 100 µM (inactive)	> 100 µM (inactive)	> 100 µM (inactive)	> 100 µM (inactive)	> 100 µM (inactive)		> 100 µM (inactive)	> 100 µM (inactive)	> 100 µM (inactive)	> 100 µM (inactive)
CC(C)NC(=O)OCc1c(COC(=O)NC(C)C)c(-c2ccc[n+](COC(=O)C(C)C)c2)n2c1CCC2	> 100 µM (inactive)	> 100 µM (inactive)	61.5 µM (inactive)	> 83.4 µM (inactive)	> 100 µM (inactive)	21.6 µM (inactive)	42.4 µM (inactive)	> 100 µM (inactive)	33.5 µM (inactive)	> 100 µM (inactive)	55.3 µM (inactive)	> 63.5 µM (inactive)	56.6 µM (inactive)	> 72.3 µM (inactive)	> 67.6 µM (inactive)	23.1 µM (inactive)	> 100 µM (inactive)	73.8 µM (inactive)	> 100 µM (inactive)	
CC(=O)O[C@H]1CC[C@@]2(C)C(=CC[C@@H]3C2CC[C@]2(C)Nc4[nH]ncc4CC32)C1 (stereo partly specified)	29.8 µM (inactive)		19.7 µM (inactive)	28.2 µM (inactive)		17.3 µM (inactive)	30.4 µM (inactive)	> 100 µM (inactive)	27.5 µM (inactive)		34.8 µM (inactive)	25.6 µM (inactive)	20.7 µM (inactive)		75.5 µM (inactive)	> 100 µM (inactive)	> 100 µM (inactive)	16.9 µM (inactive)	16.6 µM (inactive)	42.7 µM (inactive)
CC(C)(C)C1CC[C@H]2c3c([nH]c4ccc(Br)cc34)[C@H]3C(=O)N(c4ccccc4)C(=O)[C@H]3[C@H]2C1 (stereo partly specified)	92.9 µM (inactive)		22 µM (inactive)	50.9 µM (inactive)		8.09 µM (inactive)	32.7 µM (inactive)	35.2 µM (inactive)	27.9 µM (inactive)		17.4 µM (inactive)	31.6 µM (inactive)	11.5 µM (inactive)	7.74 µM (inactive)	> 100 µM (inactive)		21.7 µM (inactive)	43 µM (inactive)	> 100 µM (inactive)	10 µM (inactive)
CCC(C)Cn1c(C)nc2c1C(=O)c1ccccc1C2=O (stereo unspecified)	31.9 µM (inactive)		42.3 µM (inactive)	33.1 µM (inactive)		14.8 µM (inactive)	33.9 µM (inactive)	> 100 µM (inactive)	20.7 µM (inactive)		38.7 µM (inactive)	27.7 µM (inactive)	5.42 µM (inactive)	19.8 µM (inactive)	42.5 µM (inactive)		54.3 µM (inactive)	28.2 µM (inactive)	23.5 µM (inactive)	34.4 µM (inactive)
Brc1ccc(/N=N/N2CCCC2)cc1	66.7 µM (inactive)	48.1 µM (inactive)	> 100 µM (inactive)	57.1 µM (inactive)	> 100 µM (inactive)	48.2 µM (inactive)	81.7 µM (inactive)	> 100 µM (inactive)	45.2 µM (inactive)	> 100 µM (inactive)	> 100 µM (inactive)	> 100 µM (inactive)	60 µM (inactive)	> 100 µM (inactive)	34.8 µM (inactive)	41.6 µM (inactive)	> 100 µM (inactive)	> 100 µM (inactive)	93.8 µM (inactive)	
CN(C)CCn1c(=O)c2ccc(NCCNCCO)c3c(=O)c4cc(O)ccc4n(c1=O)c23	2.58 µM (inactive)	2.39 µM (inactive)	2.69 µM (inactive)	1.9 µM (inactive)	0.586 µM (active)	0.655 µM (active)	0.586 µM (active)	0.839 µM (active)	1.01 µM (active)	0.667 µM (active)	0.532 µM (active)	2.42 µM (inactive)	0.991 µM (active)	0.634 µM (active)	1.05 µM (active)	1.93 µM (inactive)	5.55 µM (inactive)	0.665 µM (active)	4.43 µM (inactive)	
CC(C)C(NC(=O)CNC(=O)C1CCCN1C(=O)C(NC(=O)OC(C)(C)C)C(C)C)C(=O)NCC(=O)OCc1ccccc1 (stereo unspecified) (Boc-VPGVG-OBn; configuration not given here)	> 100 µM (inactive)	> 100 µM (inactive)	> 100 µM (inactive)	> 100 µM (inactive)	> 100 µM (inactive)	> 100 µM (inactive)	> 100 µM (inactive)	> 100 µM (inactive)	> 100 µM (inactive)	80.7 µM (inactive)	> 100 µM (inactive)	> 100 µM (inactive)	61.4 µM (inactive)	> 100 µM (inactive)	> 100 µM (inactive) and 94.6 µM (inactive)	> 100 µM (inactive)	> 100 µM (inactive)	> 100 µM (inactive)	> 100 µM (inactive)	
COc1cccc2c1cc([N+](=O)[O-])c1c(C(=O)O)cc3c(c12)OCO3 [ARISTOLOCHIC ACID]	43.4 µM (inactive)	54.8 µM (inactive)	43.9 µM (inactive)	57.8 µM (inactive)	39.1 µM (inactive)	27.7 µM (inactive)	23.4 µM (inactive)	33.7 µM (inactive)	39.4 µM (inactive)	52.8 µM (inactive)	32 µM (inactive)	46.8 µM (inactive)	33.9 µM (inactive)	1.31 µM (inactive)	29.4 µM (inactive)	29.4 µM (inactive)	49.5 µM (inactive)	0.889 µM (active)	97.7 µM (inactive)	
COC(=O)C1=C(C)NC(C)=C(C(=O)OCCCN2CCC(c3ccccc3)(c3ccccc3)CC2)[C@H]1c1cccc([N+](=O)[O-])c1 [NIGULDIPINE]	2 µM (inactive)	1.63 µM (inactive)	1.69 µM (inactive)	2.41 µM (inactive)	1.3 µM (inactive)	1.81 µM (inactive)	1.86 µM (inactive)	3.25 µM (inactive)	1.75 µM (inactive)	1.69 µM (inactive)	1.92 µM (inactive)	2.07 µM (inactive)	0.946 µM (active)	1.57 µM (inactive)	1.8 µM (inactive)	4.53 µM (inactive)	5.24 µM (inactive)	1.3 µM (inactive)	1.66 µM (inactive)	
